In patent US20230212121A1 (DAEGU-GYEONGBUK MEDICAL INNOVATION FOUNDATION, priority 2020, published 2023):
Where two headings read alike, the source gives them in different places.

Experiments:
Format in all cases: cell-based
[1] = target: T1, serotonin transporter (SERT) (Homo sapiens, UniProt P31645); assay: Serotonin reuptake inhibition, [3H]-5-HT, HEK-293 cells transfected with 5-HT transporter cDNA; conditions: for IC50: concentration at which Ratio % is 50%, 6 concentrations 1 nM to 1 μM, read-out: Triple reuptake inhibition (IC50, μM) SERT
T1 construct: expressed in transfected cells; host or cells: HEK-293
T1 sequence (P31645 whole entry, species assumed): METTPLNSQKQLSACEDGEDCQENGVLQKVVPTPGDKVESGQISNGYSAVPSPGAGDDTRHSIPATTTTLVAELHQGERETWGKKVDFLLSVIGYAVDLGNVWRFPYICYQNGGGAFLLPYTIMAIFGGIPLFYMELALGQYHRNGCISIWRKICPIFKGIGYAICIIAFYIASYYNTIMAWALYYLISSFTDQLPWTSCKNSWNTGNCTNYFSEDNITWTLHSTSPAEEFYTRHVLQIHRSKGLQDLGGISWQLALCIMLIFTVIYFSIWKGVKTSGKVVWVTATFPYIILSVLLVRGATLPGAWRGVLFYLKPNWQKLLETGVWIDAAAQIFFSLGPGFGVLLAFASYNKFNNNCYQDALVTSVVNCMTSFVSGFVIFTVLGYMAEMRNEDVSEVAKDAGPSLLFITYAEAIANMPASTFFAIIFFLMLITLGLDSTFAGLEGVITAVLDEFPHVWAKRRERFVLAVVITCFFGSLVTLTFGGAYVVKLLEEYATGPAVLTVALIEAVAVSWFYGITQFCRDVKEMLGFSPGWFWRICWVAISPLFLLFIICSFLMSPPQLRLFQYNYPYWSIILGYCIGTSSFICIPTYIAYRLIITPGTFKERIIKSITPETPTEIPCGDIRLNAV
Procedure: (§1) In order to evaluate the reuptake inhibitory effect of the compounds of the Examples according to the present invention on serotonin, norepinephrine and dopamine, the experiments below were performed, and the results are shown in Table 17.
(§2) To evaluate the reuptake inhibition effect on dopamine, the dopamine transporter cDNA was transfected using the HEK-293 cell line, and then sub-seeded in a 24 well plate the next day. After removing the medium, each compound of the Examples or Comparative Examples diluted to 1 μM in uptake buffer was added to a concentration of 200 μl/well and cultured at 37° C. for 15 minutes. 100 μl of uptake buffer containing 20-30 nM [3H]-DA was added and cultured at 37° C. for 5 minutes. The reaction solution was quickly removed and washed three times with 1 ml ice-cold uptake buffer. After dissolving the resultant in 1% SDS (0.5 ml), the degree of binding of radioisotope-labeled dopamine to the transporter was measured.
(§3) For norepinephrine (NE) and serotonin (5-HT), the degree of binding of radioisotope-labeled norepinephrine or serotonin to the transporter was measured in the same manner as above, except that cells transfected with NE or 5-HT transporter cDNA were used and [3H]—NE or [3H]-5-HT was used as a substrate.
(§4) In addition, when evaluating the reuptake inhibitory effect on dopamine, norepinephrine, and serotonin, the same method was performed without treating each compound of the Examples or Comparative Examples as a control, the degree of binding of radioisotope-labeled dopamine, norepinephrine, and serotonin to the transporter was measured, and by using this as a reference (100%), the triple reuptake inhibitory effect was evaluated as a relative ratio (Ratio %). That is, in the control group, the binding of dopamine, norepinephrine, and serotonin to transporters is not inhibited, but when each compound of the Examples is treated and thus the binding is inhibited, the Ratio % value decreases.
(§5) Meanwhile, the Ratio % values were compared, and in the case of the compounds of Examples 6, 10, 13, 14, 17, 20, 21, 22, 30, 31, 32, 34, 36, 38, 39, 40, 54, 55, 56, 57, 58 and 73 with excellent reuptake inhibitory effects on dopamine, norepinephrine and serotonin, the concentration at which the Ratio % is 50% was calculated using a total of 6 concentrations (1 nM, 5 nM, 10 nM, 50 nM, 100 nM, and 1 μM) and expressed as IC50.

[2] = target: T2, norepinephrine transporter (NET) (Homo sapiens, UniProt P23975); assay: Norepinephrine reuptake inhibition, [3H]-NE, HEK-293 cells transfected with NE transporter cDNA; conditions: for Triple reuptake inhibition (Ratio %) NET: compound 1 μM, [3H]-NE, relative to control without compound = 100%, lower value = more inhibition; for IC50: concentration at which Ratio % is 50%, 6 concentrations 1 nM to 1 μM, read-out: Triple reuptake inhibition (IC50, μM) NET
T2 construct: expressed in transfected cells; host or cells: HEK-293
T2 sequence (P23975 whole entry, species assumed): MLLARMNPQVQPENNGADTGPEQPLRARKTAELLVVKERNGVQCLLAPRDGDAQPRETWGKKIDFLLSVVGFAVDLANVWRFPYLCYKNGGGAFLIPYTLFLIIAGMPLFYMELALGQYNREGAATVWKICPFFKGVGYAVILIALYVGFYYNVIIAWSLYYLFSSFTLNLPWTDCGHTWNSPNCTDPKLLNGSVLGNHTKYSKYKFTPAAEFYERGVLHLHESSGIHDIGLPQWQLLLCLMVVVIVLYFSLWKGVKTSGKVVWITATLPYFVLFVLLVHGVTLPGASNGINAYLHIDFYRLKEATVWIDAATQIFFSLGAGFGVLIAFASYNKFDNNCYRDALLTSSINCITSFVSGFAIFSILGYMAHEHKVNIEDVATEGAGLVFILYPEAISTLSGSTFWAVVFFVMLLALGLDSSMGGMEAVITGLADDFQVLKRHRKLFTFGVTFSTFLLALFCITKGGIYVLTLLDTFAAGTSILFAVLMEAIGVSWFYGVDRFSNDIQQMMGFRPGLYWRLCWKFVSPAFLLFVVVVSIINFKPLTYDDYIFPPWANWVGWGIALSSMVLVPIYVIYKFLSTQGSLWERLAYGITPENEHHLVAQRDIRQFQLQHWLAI
Procedure: as §1, §2, §3, §4, §5

[3] = target: T3, dopamine transporter (DAT) (Homo sapiens, UniProt Q01959); assay: Dopamine reuptake inhibition, [3H]-DA, HEK-293 cells transfected with dopamine transporter cDNA; conditions: for Triple reuptake inhibition (Ratio %) DAT: compound 1 μM, 20-30 nM [3H]-DA, relative to control without compound = 100%, lower value = more inhibition; for IC50: concentration at which Ratio % is 50%, 6 concentrations 1 nM to 1 μM, read-out: Triple reuptake inhibition (IC50, μM) DAT
T3 construct: expressed in transfected cells; host or cells: HEK-293
T3 sequence (Q01959 whole entry, species assumed): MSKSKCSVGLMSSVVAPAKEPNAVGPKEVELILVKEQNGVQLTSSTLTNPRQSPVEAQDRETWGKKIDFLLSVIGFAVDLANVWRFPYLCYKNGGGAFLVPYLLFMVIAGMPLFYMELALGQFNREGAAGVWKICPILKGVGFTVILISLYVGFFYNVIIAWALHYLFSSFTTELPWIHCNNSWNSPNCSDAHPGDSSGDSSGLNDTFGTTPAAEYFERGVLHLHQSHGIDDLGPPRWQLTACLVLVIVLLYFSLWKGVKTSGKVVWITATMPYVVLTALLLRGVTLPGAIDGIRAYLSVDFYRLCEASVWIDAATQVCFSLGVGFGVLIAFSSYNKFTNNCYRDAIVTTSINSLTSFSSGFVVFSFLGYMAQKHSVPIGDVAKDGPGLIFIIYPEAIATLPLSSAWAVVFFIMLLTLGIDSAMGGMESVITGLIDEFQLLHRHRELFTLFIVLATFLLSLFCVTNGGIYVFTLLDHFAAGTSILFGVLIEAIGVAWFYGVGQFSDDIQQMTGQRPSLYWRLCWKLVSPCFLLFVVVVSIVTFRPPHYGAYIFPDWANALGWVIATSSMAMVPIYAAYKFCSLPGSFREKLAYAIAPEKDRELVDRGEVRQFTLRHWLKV
Procedure: as §1, §2, §4, §5

[4] = compound 1 μM, [3H]-5-HT, relative to control without compound = 100%, lower value = more inhibition

SMILES	Triple reuptake inhibition (Ratio %) SERT [1, 4]	Triple reuptake inhibition (Ratio %) NET [2]	Triple reuptake inhibition (Ratio %) DAT [3]	IC50 [1]	IC50 [2]	IC50 [3]	Triple reuptake inhibition (Ratio %) SERT [1]
CCCCOc1ccc(S(=O)(=O)NCCCN2CCC(Cc3ccc(Cl)c(Cl)c3)CC2)cc1 [Example 20, 4-butoxy-N-(3-(4-(3,4-dichlorobenzyl)piperidin-1-yl)propyl)benzenesulfonamide]	40.46%	30.29%	56.29%	0.504 µM	0.221 µM	2.16 µM	
CCCCOc1ccc(S(=O)(=O)NCCCN2CCC(Cc3ccccc3)CC2)cc1 [Example 10, N-(3-(4-benzylpiperidin-1-yl)propyl)-4-butoxybenzenesulfonamide]	24.45%	13.02%	41.80%	0.483 µM	0.168 µM	0.612 µM	
CCCCOc1ccc(S(=O)(=O)NCCCN2CCC(Cc3ccc(OC)cc3)CC2)cc1 [Example 30, 4-butoxy-N-(3-(4-(4-methoxybenzyl)piperidin-1-yl)propyl)benzenesulfonamide]	23.18%	37.58%		0.538 µM	1.7 µM	11.6 µM	
Cc1ccc(-c2ccc(S(=O)(=O)NCCCN3CCC(Cc4ccccc4)CC3)cc2)cc1 [Example 60, N-(3-(4-benzylpiperidin-1-yl)propyl)-4′-methyl-[1,1′-biphenyl]-4-sulfonamide]	17.76%	44.79%	9.15%				
O=S(=O)(NCCN1CCC(Cc2ccccc2)CC1)c1ccc2ccccc2c1 [Example 38, N-(2-(4-benzylpiperidin-1-yl)ethyl) naphthalen-2-sulfonamide]	34.20%	21.54%	56.59%			0.493 µM	
COc1ccc(S(=O)(=O)NCCCN2CCC(Cc3ccccc3)CC2)cc1 [Example 14, N-(3-(4-benzylpiperidin-1-yl)propyl)-4-methoxybenzenesulfonamide]	55.67%	22.30%	39.90%	1.75 µM	0.173 µM	1.26 µM	
CCCCOc1ccc(S(=O)(=O)NCCCN2CCC(Cc3ccc(F)cc3)CC2)cc1 [Example 32, 4-butoxy-N-(3-(4-(4-fluorobenzyl)piperidin-1-yl)propyl)benzenesulfonamide]	30.80%	20.42%	45.64%	0.386 µM	0.749 µM	2.14 µM	
CCCCOc1ccc(S(=O)(=O)NCCCN2CCC(c3c[nH]c4ccccc34)CC2)cc1 [Example 11, N-(3-(4-(1H-indol-3-yl)piperidin-1-yl)propyl)-4-butoxybenzenesulfonamide]	18.04%	73.79%	73.16%				
O=S(=O)(NCCN1CCC(Cc2ccccc2)CC1)c1ccc(F)cc1 [Example 2, N-(2-(4-benzylpiperidin-1-yl)ethyl)-4-fluorobenzenesulfonamide]	100.21%	61.32%	73.55%				
O=S(=O)(NCCN1CCC(Cc2ccccc2)CC1)c1ccc(O)cc1 [Example 1, N-(2-(4-benzylpiperidin-1-yl)ethyl)-4-hydroxybenzenesulfonamide]		77.88%	65.88%				84.98%
CCCCOc1ccc(S(=O)(=O)NCCCN2CCN(Cc3ccccc3)CC2)cc1 [Example 27, N-(3-(4-benzylpiperazin-1-yl)propyl)-4-butoxybenzenesulfonamide]	76.16%	36.89%	88.17%				
CCCCOc1ccc(S(=O)(=O)NCCCN2CCC(Cc3ccc(Cl)cc3)CC2)cc1 [Example 28, 4-butoxy-N-(3-(4-(4-chlorobenzyl)piperidin-1-yl)propyl)benzenesulfonamide]	26.63%	64.36%	94.53%				
O=S(=O)(NCCCN1CCC(c2ccccc2)CC1)c1cccc2ccccc12 [Example 63]	64.15%	34.97%	80.21%				
CCCCOc1ccc(S(=O)(=O)NCCCN2CCN(c3ccc(Cl)c(Cl)c3)CC2)cc1 [Example 23, 4-butoxy-N-(3-(4-(3,4-dichlorophenyl)piperazin-1-yl)propyl)benzenesulfonamide]	41.32%	83.63%	99.56%				
O=S(=O)(NCCN1CCC(Cc2ccccc2)CC1)c1cccc2ccccc12 [Example 39, N-(2-(4-benzylpiperidin-1-yl)ethyl)naphthalen-1-sulfonamide]	15.77%	18.46%	31.26%			1.16 µM	

Now from value to compound, other results behind:

Triple reuptake inhibition (Ratio %) SERT [1, 4]	Triple reuptake inhibition (Ratio %) NET [2]	Triple reuptake inhibition (Ratio %) DAT [3]	SMILES	IC50 [1]	IC50 [2]	IC50 [3]	Triple reuptake inhibition (Ratio %) SERT [1]
47.19%	64.45%	68.53%	O=S(=O)(NCCCN1CCN(c2ccc(Cl)cc2)CC1)c1cccc2ccccc12 [Example 71, N-(3-(4-(4-chlorophenyl)piperazin-1-yl)propyl)naphthalen-1-sulfonamide]				
29.78%	44.79%	15.16%	O=S(=O)(NCCCN1CCC(Cc2ccccc2)CC1)c1ccc(-c2ccc(Cl)cc2)cc1 [Example 59, N-(3-(4-benzylpiperidin-1-yl)propyl)-4′-chloro-[1,1′-biphenyl]-4-sulfonamide]				
56.73%	45.04%	89.88%	O=S(=O)(NCCN1CCC(c2ccccc2)CC1)c1ccc2ccccc2n1 [Example 45, N-(2-(4-phenylpiperidin-1-yl)ethyl)quinolin-2-sulfonamide]				
47.19%	64.45%	68.53%	O=S(=O)(NCCCN1CCN(c2ccc(Cl)cc2)CC1)c1ccc(-c2ccccc2)cc1 [Example 72, N-(3-(4-(4-chlorophenyl)piperazin-1-yl)propyl)-[1,1′-biphenyl]-4-sulfonamide]				
64.15%	34.97%	80.21%	O=S(=O)(NCCN1CCC(Cc2ccccc2)CC1)c1ccc2ccccc2n1 [Example 41, N-(2-(4-benzylpiperidin-1-yl)ethyl)quinolin-2-sulfonamide]				
64.15%	34.97%	80.21%	O=S(=O)(NCCN1CCC(c2ccccc2)CC1)c1cccc2ccccc12 [Example 43, N-(2-(4-phenylpiperidin-1-yl)ethyl)naphthalen-1-sulfonamide]				
